Measured values taken from ChEMBL document CHEMBL6078668, “Synthesis and biological evaluation of lappaconitine analogues as potential anti-neuroinflammatory agents by side chain modification and scaffold hopping strategy” (Bioorg Med Chem, 2025).

Columns and labels:
[1] = Cytotoxicity against C57BL/6 mouse BV-2 cells assessed as survival rate at 20 uM incubated for 24 hrs by MTT assay relative to control; type: toxicity, cell-based; settings: read-out: INH
BV-2 [2] = assay: Anti-neuroinflammatory activity against LPS-stimulated C57BL/6 mouse BV-2 cells assessed as inhibition of NO release at 20 uM preincubated with compound for 4 hrs followed by LPS addition and measured after 24 hrs by Griess reagent based assay relative to control; type: functional; settings: C57BL/6, BV-2, time 28 hrs
BV-2 [3] = assay: Anti-neuroinflammatory activity against LPS-stimulated C57BL/6 mouse BV-2 cells assessed as inhibition of NO release preincubated with compound for 4 hrs followed by LPS addition and measured after 24 hrs by Griess reagent based assay; type: functional, cell-based; settings: C57BL/6, BV-2
BV-2 [4] = assay: Anti-neuroinflammatory activity against LPS-stimulated C57BL/6 mouse BV-2 cells assessed as inhibition of NO release at 30 uM preincubated with compound for 4 hrs followed by LPS addition and measured after 24 hrs by Griess reagent based assay relative to control; type: functional; settings: C57BL/6, BV-2, time 28 hrs
[5] = Cytotoxicity against C57BL/6 mouse BV-2 cells assessed as survival rate at 30 uM incubated for 24 hrs by MTT assay relative to control; type: toxicity, cell-based; settings: read-out: Survival
[6] = Cytotoxicity against C57BL/6 mouse BV-2 cells assessed as survival rate at 10 uM incubated for 24 hrs by MTT assay relative to control; type: toxicity, cell-based; settings: read-out: Survival
BV-2 [7] = assay: Anti-neuroinflammatory activity against LPS-stimulated C57BL/6 mouse BV-2 cells assessed as inhibition of NO release at 10 uM preincubated with compound for 4 hrs followed by LPS addition and measured after 24 hrs by Griess reagent based assay relative to control; type: functional; settings: C57BL/6, BV-2, time 28 hrs

SMILES | viability at 24 h, 20 µM [1] [%] | inhibition at 20 µM (BV-2 [2]) [%] | IC50 (BV-2 [3]) [µM] | inhibition at 30 µM (BV-2 [4]) [%] | viability at 24 h, 30 µM [5] [%] | viability at 24 h, 10 µM [6] [%] | inhibition at 10 µM (BV-2 [7]) [%]
CCc1ccc(C(=O)Nc2ccccc2C(=O)OC[C@@]23CC[C@H](OC)[C@]45C([C@@H](C[C@H]24)[C@@]2(O)C[C@H](OC)[C@H]4C[C@@H]5[C@]2(O)[C@H]4OC)N(CC)C3)cc1 | 102 | 21.7 |  |  |  |  | 
CCN1C[C@]2(OC(=O)c3ccccc3NC(=O)c3ccc(N(C)C)cc3)CC[C@H](OC)[C@]34C1[C@@H](C[C@H]23)[C@@]1(O)C[C@H](OC)[C@H]2C[C@@H]4[C@]1(O)[C@H]2OC |  |  | 23.6 | 62.4 | 101 |  | 
CCCOc1ccc(C(=O)Nc2ccccc2C(=O)O[C@@]23CC[C@H](OC)[C@]45C([C@@H](C[C@H]24)[C@@]2(O)C[C@H](OC)[C@H]4C[C@@H]5[C@]2(O)[C@H]4OC)N(CC)C3)cc1 |  |  | 15.5 | 74.8 | 105 |  | 
CCc1ccc(C(=O)Nc2ccccc2C(=O)O[C@@]23CC[C@H](OC)[C@]45C([C@@H](C[C@H]24)[C@@]2(O)C[C@H](OC)[C@H]4C[C@@H]5[C@]2(O)[C@H]4OC)N(CC)C3)cc1 |  |  | 10.4 | 83.9 | 107 |  | 
CCN1C[C@]2(OC(=O)c3ccccc3NC(=O)S(=O)(=O)c3cccnc3)CC[C@H](OC)[C@]34C1[C@@H](C[C@H]23)[C@@]1(O)C[C@H](OC)[C@H]2C[C@@H]4[C@]1(O)[C@H]2OC |  |  | 22.2 | 63.2 | 99.3 |  | 
CCN1C[C@]2(COC)CC[C@H](OC)[C@]34C1[C@@H](C[C@H]23)[C@@]1(O)C[C@H](OC)[C@H]2C[C@@H]4[C@]1(O)[C@H]2OC(=O)c1ccccc1NS(=O)(=O)c1ccc(Br)s1 | 110 | 32.8 |  |  |  |  | 
CCN1C[C@]2(OC(=O)c3ccccc3NC(=O)S(=O)(=O)c3ccc(Br)s3)CC[C@H](OC)[C@]34C1[C@@H](C[C@H]23)[C@@]1(O)C[C@H](OC)[C@H]2C[C@@H]4[C@]1(O)[C@H]2OC |  |  | 11.4 | 81.9 | 103 |  | 
CCN1C[C@]2(OC(=O)c3ccccc3NC(=O)S(=O)(=O)c3cc(F)cc(F)c3)CC[C@H](OC)[C@]34C1[C@@H](C[C@H]23)[C@@]1(O)C[C@H](OC)[C@H]2C[C@@H]4[C@]1(O)[C@H]2OC |  |  | 20.4 | 64.1 | 102 |  | 
CCN1C[C@]2(COC)CC[C@H](OC)[C@]34C1[C@@H](C[C@H]23)[C@@]1(O)C[C@H](OC)[C@H]2C[C@@H]4[C@]1(O)[C@H]2OC(=O)c1ccccc1NC(=O)c1ccc(Cl)s1 |  |  |  |  |  | 97.8 | 22.2
CCc1ccc(C(=O)Nc2ccccc2C(=O)O[C@H]2[C@@H]3C[C@H]4[C@@]56C7[C@@H](C[C@@H]5[C@@](COC)(CC[C@@H]6OC)CN7CC)[C@@](O)(C[C@@H]3OC)[C@@]24O)cc1 |  |  |  |  |  | 1.2 | 
CCN1C[C@]2(COC(=O)c3ccccc3NC(=O)c3ccc(Cl)s3)CC[C@H](OC)[C@]34C1[C@@H](C[C@H]23)[C@@]1(O)C[C@H](OC)[C@H]2C[C@@H]4[C@]1(O)[C@H]2O | 104 | 45.3 |  |  |  |  | 
CCN1C[C@]2(OC(=O)c3ccccc3NC(=O)S(=O)(=O)c3ccc(Cl)s3)CC[C@H](OC)[C@]34C1[C@@H](C[C@H]23)[C@@]1(O)C[C@H](OC)[C@H]2C[C@@H]4[C@]1(O)[C@H]2OC |  |  | 17.9 | 69 | 100 |  | 
CCN1C[C@]2(OC(=O)c3ccccc3NC(=O)c3ccc(Cl)s3)CC[C@H](OC)[C@]34C1[C@@H](C[C@H]23)[C@@]1(O)C[C@H](OC)[C@H]2C[C@@H]4[C@]1(O)[C@H]2OC |  |  | 11.3 | 82.1 | 108 |  | 
CCN1C[C@]2(COC)CC[C@H](OC)[C@]34C1[C@@H](C[C@H]23)[C@@]1(O)C[C@H](OC)[C@H]2C[C@@H]4[C@]1(O)[C@H]2OC(=O)c1ccccc1NS(=O)(=O)c1cccc(F)c1 | 100 | 18.5 |  |  |  |  | 
CCN1C[C@]2(OC(=O)c3ccccc3NC(=O)CC(C)(C)C)CC[C@H](OC)[C@]34C1[C@@H](C[C@H]23)[C@@]1(O)C[C@H](OC)[C@H]2C[C@@H]4[C@]1(O)[C@H]2OC |  |  | 16.1 | 74.8 | 106 |  | 
CCN1C[C@]2(OC(=O)c3ccccc3NC(=O)S(=O)(=O)c3c(Cl)sc4ccccc34)CC[C@H](OC)[C@]34C1[C@@H](C[C@H]23)[C@@]1(O)C[C@H](OC)[C@H]2C[C@@H]4[C@]1(O)[C@H]2OC |  |  |  |  |  | 98.5 | 26.4
CCN1C[C@]2(OC(=O)c3ccccc3NC(=O)c3ccc(Br)s3)CC[C@H](OC)[C@]34C1[C@@H](C[C@H]23)[C@@]1(O)C[C@H](OC)[C@H]2C[C@@H]4[C@]1(O)[C@H]2OC |  |  | 16.5 | 72.9 | 103 |  | 
CCN1C[C@]2(OC(=O)c3ccccc3NC(=O)S(=O)(=O)c3ccccc3F)CC[C@H](OC)[C@]34C1[C@@H](C[C@H]23)[C@@]1(O)C[C@H](OC)[C@H]2C[C@@H]4[C@]1(O)[C@H]2OC |  |  | 18.9 | 68 | 106 |  | 
CCN1C[C@]2(OC(=O)c3ccccc3NC(=O)S(=O)(=O)c3c(C)c(C)c4c(c3C)CC(C)(C)O4)CC[C@H](OC)[C@]34C1[C@@H](C[C@H]23)[C@@]1(O)C[C@H](OC)[C@H]2C[C@@H]4[C@]1(O)[C@H]2OC |  |  |  |  |  | 95.8 | 17.5
CCCOc1ccccc1C(=O)Nc1ccccc1C(=O)O[C@@]12CC[C@H](OC)[C@]34C([C@@H](C[C@H]13)[C@@]1(O)C[C@H](OC)[C@H]3C[C@@H]4[C@]1(O)[C@H]3OC)N(CC)C2 |  |  | 11.8 | 78.5 | 106 |  | 
CCN1C[C@]2(COC(=O)c3ccccc3NC(=O)c3ccc(Cl)s3)CC[C@H](OC)[C@]34C1[C@@H](C[C@H]23)[C@@]1(O)C[C@H](OC)[C@H]2C[C@@H]4[C@]1(O)[C@H]2OC |  |  |  |  |  | 105 | 13.5
CCN1C[C@]2(OC(=O)c3ccccc3NC(=O)c3cccc(OC)c3)CC[C@H](OC)[C@]34C1[C@@H](C[C@H]23)[C@@]1(O)C[C@H](OC)[C@H]2C[C@@H]4[C@]1(O)[C@H]2OC |  |  |  | 44.9 | 107 |  | 
